Data as given in ChEMBL document CHEMBL3632614, “Small molecules that promote regenerative repair for pancreatic and cardiovascular health” (2015).

Columns and labels:
[1] = Induction of rat beta cell proliferation after 3 days relative to control; format: functional, Pancreatic beta cell
Rattus norvegicus = species: Rattus norvegicus; assay: Increase in rat beta cell mass in rat T1DM model after 45 days; format: functional
[2] = Induction of rat beta cell proliferation assessed as increase in PDX1 expressing cells relative to control; format: functional, Pancreatic beta cell

With `COC(=O)C1=C(C)NC(C)=C([N+](=O)[O-])C1c1ccccc1C(F)(F)F` (centres undefined) as the compound, how does the “fold change (FC)” value [1] read?
Its value is 2.5.

Which results are given for `CN1CCN(Cc2ccc(NC(=O)Cc3ccc(Oc4cc(NC(=O)C5CC5)ncn4)cc3)cc2C(F)(F)F)CC1`?
Activity (Rattus norvegicus): 50%; Activity [1]: <=4%

With `Nc1ncnc2nc(-c3ccc(N4CCOCC4)nc3)cc(-c3cccc(Br)c3)c12` as the compound, how does the “fold change (FC)” value [2] read?
The value was 2.
